Assays:
TYR = target: T1, TYR (Homo sapiens, UniProt P14679); experiment: diphenol oxidase activity, dopachrome absorbance at […] nm, Michaelis-Menten fit; type: biochemical; settings: free enzyme; 10 min incubation; 10 mM NaPO4 pH 7.4; 37 °C; unit printed mM^−1 (sic, mM meant)
T1 construct: recombinant truncated intra-melanosomal domain, C-terminal part with transmembrane helix removed, His-tagged; baculovirus / T. ni larvae
T1 sequence (P14679 19-469 limits assumed): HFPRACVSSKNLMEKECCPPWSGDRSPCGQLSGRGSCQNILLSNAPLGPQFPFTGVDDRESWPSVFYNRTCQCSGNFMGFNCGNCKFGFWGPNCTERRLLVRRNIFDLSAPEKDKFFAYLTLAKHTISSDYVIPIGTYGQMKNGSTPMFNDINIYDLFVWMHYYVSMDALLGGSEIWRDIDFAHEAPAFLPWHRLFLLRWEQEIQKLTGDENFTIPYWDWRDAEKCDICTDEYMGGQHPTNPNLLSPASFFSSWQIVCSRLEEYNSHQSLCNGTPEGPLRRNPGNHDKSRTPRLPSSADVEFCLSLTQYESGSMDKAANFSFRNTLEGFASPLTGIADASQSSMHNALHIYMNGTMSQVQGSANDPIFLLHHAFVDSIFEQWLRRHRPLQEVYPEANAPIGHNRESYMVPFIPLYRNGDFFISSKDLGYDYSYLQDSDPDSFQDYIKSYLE

TYRP1 = target: T2, TYRP1 (Homo sapiens, UniProt P17643); experiment: DHICA oxidation, IQCA absorbance at […] nm; type: biochemical; settings: 1.5 mM DHICA; pH 7.4; 37 °C; 24 h; no MBTH
T2 construct: recombinant truncated intra-melanosomal domain, C-terminal part with transmembrane helix removed, purified on His-Trap; baculovirus / T. ni larvae; ~59 kDa
T2 sequence (P17643 25-477 limits assumed): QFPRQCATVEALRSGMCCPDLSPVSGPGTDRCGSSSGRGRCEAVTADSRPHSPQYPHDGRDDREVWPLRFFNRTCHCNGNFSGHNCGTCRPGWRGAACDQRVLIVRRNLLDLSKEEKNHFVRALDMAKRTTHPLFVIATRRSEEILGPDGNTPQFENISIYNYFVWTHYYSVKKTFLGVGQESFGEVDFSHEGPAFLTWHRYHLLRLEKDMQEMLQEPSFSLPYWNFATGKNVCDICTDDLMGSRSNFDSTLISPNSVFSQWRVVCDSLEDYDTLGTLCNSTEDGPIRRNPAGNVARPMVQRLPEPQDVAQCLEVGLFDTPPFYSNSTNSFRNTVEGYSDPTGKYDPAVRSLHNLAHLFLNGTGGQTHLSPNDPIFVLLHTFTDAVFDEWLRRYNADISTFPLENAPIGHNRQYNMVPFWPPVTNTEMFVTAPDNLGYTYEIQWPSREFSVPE

N[C@@H](Cc1ccc(O)c(O)c1)C(=O)O [L-DOPA]
Km (mM^-1) / Tyr (TYR): 0.241 ± 0.069 mM⁻¹

O=C(O)c1cc2cc(O)c(O)cc2[nH]1 [DHICA]
DHICA oxidation, IQCA absorbance at 560 nm (TYRP1): the spectrum of the reaction shows the formation of a peak corresponding to a new product

Reference: paper PMC9820814, “In Vitro Reconstitution of the Melanin Pathway’s Catalytic Activities Using Tyrosinase Nanoparticles” (International Journal of Molecular Sciences, 2022)
